Reference: patent US12649942B2, “Carotenoids for treating or preventing nausea” (priority 2019, dated 2026)

Columns and labels:
[1] = test system: pgp-5p::gfp; experiment: pgp-5p::gfp induction in eft-3(q145);pgp-5p::gfp animals (translation deficit); format: in vivo, C. elegans; settings: vs mock-treated
[2] = test system: pgp-5p::gfp; experiment: pgp-5p::gfp induction in response to hygromycin, emetine or cisplatin; format: in vivo, C. elegans; settings: animals fed E. coli OP50; hygromycin 10 μg/ml, emetine 6.25 μg/ml, cisplatin 1 mM
Method: Hygromycin diluted in M9 solution to the desired concentration was added onto E. coli OP50 bacteria containing NGM plates. […] For the xenobiotic experiments, synchronized L1-stage animals were dropped onto the drug containing plates and scored 4 days later.

[3] = test system: C. elegans; experiment: food aversion behavior; format: in vivo; settings: for food aversion induced by the drug: in vivo
Method: In some embodiments, a food aversion assay as described herein is used. In some embodiments, a test sample is, or is derived from (e.g., a sample taken from) an in vivo model of a disorder as described herein. For example, a test compound is applied to a test sample comprising one or more C. elegans organisms, and one or more effects of the test compound is evaluated. For example, the ability of a test compound to counteract food aversion in the presence of a chemotherapeutic agent or other nausea-inducing stimulus can be tested. Alternatively, effects on a reporter gene, e.g., ABC transporter gene fusion pgp-5p::gfp, can be evaluated by detecting alterations in GFP fluorescence. As one of skill in the art will appreciate, other reporters could readily be used.
C. elegans food aversion behaviors are induced when animals are exposed to xenobiotics or essential gene inactivations (Melo and Ruvkun, 2012). […] While ˜40% of animals exposed to 25 μg/ml hygromycin display food aversion behavior, ˜15% of animals exposed to 25 μg/ml hygromycin and K. rhizophila carotenoid extract show aversion (FIG. 3E). Similar results were obtained with cisplatin: ˜50% of animals exposed to 1 mM cisplatin display aversion behavior while <20% of animals exposed to 1 mM cisplatin and K. rhizophila carotenoid extract display food aversion (FIG. 3F).

[4] = animals on E. coli OP50 treated with the substance, screened after 50 hours at 20° C.
[5] = animals fed on E. coli expressing the carotenoid

Compound: CC(=O)N[C@@H](CS)C(=O)O [N-acetyl cysteine]
- induction of pgp-5p::gfp [1, 4]: not significantly different

Compound: CC1=CCCC(C)(C)C1/C=C/C(C)=C/C=C/C(C)=C/C=C/C=C(C)/C=C/C=C(C)/C=C/C1=C(C)CCCC1(C)C (stereo not drawn) [alpha-carotene]
- induction of pgp-5p::gfp [1, 5]: not significantly different

Compound: CC1=C(/C=C/C(C)=C/C=C/C(C)=C/C=C/C=C(C)/C=C/C=C(C)/C=C/C2=C(C)C(=O)[C@@H](O)CC2(C)C)C(C)(C)C[C@H](O)C1=O [astaxanthin]
- induction of pgp-5p::gfp [1, 4]: not significantly different

Compound: CC1=C(/C=C/C(C)=C/C=C/C(C)=C/C=C/C=C(C)/C=C/C=C(C)/C=C/C2=C(C)CCCC2(C)C)C(C)(C)CCC1 [beta-carotene]
- induction of pgp-5p::gfp [1, 4]: not significantly different

Compound: N.N.[Cl][Pt][Cl] [cisplatin]
- pgp-5p::gfp expression induced by the drug [2]: induces pgp-5p::gfp expression
- animals that display aversion behavior ([3]; 1 mM cisplatin, no extract): ~50%
- food aversion induced by the drug [3]: strong food aversion

Compound: CC(C)=CCC/C(C)=C/C=C/C(C)=C/C=C/C(C)=C/C=C/C=C(C)/C=C/C=C(C)/C=C/C1C(C)=CCCC1(C)C (stereo not shown) [delta-carotene]
- induction of pgp-5p::gfp [1, 5]: not significantly different

Compound: CC[C@H]1CN2CCc3cc(OC)c(OC)cc3[C@@H]2C[C@@H]1C[C@H]1NCCc2cc(OC)c(OC)cc21 [emetine]
- food aversion induced by the drug [3]: strong food aversion

Compound: CC(C)=CCC/C(C)=C/C=C/C(C)=C/C=C/C(C)=C/C=C/C=C(C)/C=C/C=C(\C)CC/C=C(\C)CCC=C(C)C [neurosporene]
- induction of pgp-5p::gfp [1, 5]: not significantly different

Compound: Cc1c(C)c2c(c(C)c1O)CCC(C)(C(=O)O)O2 (stereo not shown) [trolox]
- induction of pgp-5p::gfp [1, 4]: not significantly different

Compound: CC(/C=C/C=C(C)/C=C/[C@@]12O[C@]1(C)C[C@@H](O)CC2(C)C)=C\C=C\C=C(C)\C=C\C=C(C)\C=C\[C@@]12O[C@]1(C)C[C@@H](O)CC2(C)C [violaxanthin]
- induction of pgp-5p::gfp [1, 5]: not significantly different

Compound: CC1=C(/C=C/C(C)=C/C=C/C(C)=C/C=C/C=C(C)/C=C/C=C(C)/C=C/C2=C(C)C[C@@H](O)CC2(C)C)C(C)(C)C[C@H](O)C1 [zeaxanthin]
- induction of pgp-5p::gfp [1, 5]: not significantly different
